Test results from PMC6379368, “Extracellular and intracellular small-molecule galectin-3 inhibitors” (Scientific Reports, 2019).

How the values were obtained:
Type in all cases: cell-based
JIMT-1 cells = test: Cell proliferation assay (growth curves), JIMT-1; settings: JIMT-1, 5 µM, up to 6 days
Description: JIMT-1 cells were seeded in 5 cm diameter Petri dishes at a density of 400 000 cells/Petri dish. […] The cells were harvested by trypsinization and the number of cells was determined by counting in a hemocytometer (each day for a total of 6 days).

BxPc-3 cells = test: Growth curves, BxPc-3; settings: BxPc-3, 10 µM
Description: METHODS (not described in main article)
The AsPC-1, BxPc-3, MIA PaCa-2, and PanC-1 pancreatic cancer cell lines were purchased from the American Type Culture Collection (ATCC) (Manassas, VA, USA). AsPC-1 and BxPc-3 cell lines were cultured in RPMI-1640 medium, and MIA PaCa-2 and PanC-1 in Dulbecco's Modified Eagle Medium (DMEM)/Ham's F12 medium mixture (1:1). The medium of all four pancreatic cancer cell lines was supplemented with 10 % fetal bovine serum (FBS), 100 U/ml penicillin, and 100 μg/ml streptomycin. The L56Br-C1 breast cancer cell line was established at Lund University (Lund, Sweden)1, and was cultured in RPMI-1640 medium supplemented with 10 % heat-inactivated FBS, 100 U/ml penicillin, 100 μg/ml streptomycin, 1 mM non-essential amino acids, and 10 µg/ml insulin. The MCF-10A normal-like breast cell line was obtained from ATCC and was cultured in the same medium mixture as L56Br-C1 with the addition of 20 ng/ml epidermal growth factor, 50 ng/ml cholera toxin, and 500 ng/ml hydrocortisone.
(§1) Fluorescence anisotropy assay
The affinity between inhibitor 1 and the carbohydrate recognition domain (CRD) of galectin-8C and between inhibitor 3 and the CRD of galectin-2, -4N, -4C, 8C, and -9C was determined using the fluorescence anisotropy assay described in the main article. Experimental conditions used for each galectin […]

MCF-7 cells = test: MTT cell viability assay, MCF-7; settings: MCF-7, 72 hours, 0.04–40 µM for 1 and 2, 0.04–20 µM for 3
Description: (§2) The MTT (3-[4,5-dimethylthiazol-2-yl]−2,5-diphenyltetrazolium bromide) assays were performed as previously described. […] The cells were incubated for 24 hours before addition of galectin-3 inhibitors. The inhibitors were diluted in PBS from their respective stock solution in DMSO (see Galectin-3 inhibitors) and used at final concentrations ranging from 0.04 to 40 μM. DMSO was adjusted to make the final DMSO concentration 0.2% for all inhibitor concentrations, including the control sample (no inhibitor). After 72 hours of treatment, 20 μl of 5 mg/ml MTT solution (in PBS) was added to each well and incubation continued for 1 hour at 37 °C. Thereafter, the MTT containing medium was removed and 100 μl of DMSO was added per well and the plates swirled gently for 10 minutes to dissolve the cells and the purple formazan product precipitate. Absorbance was monitored at 540 nm using a Labsystems iEMS Reader MF (Labsystems Oy, Helsinki, Finland) and the software DeltaSoft II v.4.14 (Biometallics Inc., Princeton, NJ, USA).

HCC1937 cells = test: MTT cell viability assay, HCC1937; settings: HCC1937, 72 hours, 0.04–40 µM for 1 and 2, 0.04–20 µM for 3
Description: as §2

MCF-10A cells = test: MTT assay, MCF-10A normal-like breast cell line; settings: 72 hours
Description: The MTT (3-[4,5-dimethylthiazol-2-yl]−2,5-diphenyltetrazolium bromide) assays were performed as previously described. In brief, cells were seeded in 96-well plates (6000 cells/well for MCF-7 and HCC1937 and 5000 cells for JIMT-1 in 180 μl fully-supplemented medium as described under Cell culture). The cells were incubated for 24 hours before addition of galectin-3 inhibitors. The inhibitors were diluted in PBS from their respective stock solution in DMSO (see Galectin-3 inhibitors) and used at final concentrations ranging from 0.04 to 40 μM. DMSO was adjusted to make the final DMSO concentration 0.2% for all inhibitor concentrations, including the control sample (no inhibitor). After 72 hours of treatment, 20 μl of 5 mg/ml MTT solution (in PBS) was added to each well and incubation continued for 1 hour at 37 °C. […] Absorbance was monitored at 540 nm using a Labsystems iEMS Reader MF (Labsystems Oy, Helsinki, Finland) and the software DeltaSoft II v.4.14 (Biometallics Inc., Princeton, NJ, USA). […]
as §1
The affinity between inhibitor 1 and the carbohydrate recognition domain (CRD) of galectin-8C and between inhibitor 3 and the CRD of galectin-2, -4N, -4C, 8C, and -9C was determined using the fluorescence anisotropy assay described in the main article. […]

OC[C@H]1O[C@@H](S[C@@H]2O[C@H](CO)[C@H](O)[C@H](n3cc(-c4cccc(F)c4)nn3)[C@H]2O)[C@H](O)[C@@H](n2cc(-c3cccc(F)c3)nn2)[C@H]1O [compound 1]
cell proliferation (growth curves) (JIMT-1 cells): no effect on cell proliferation
cell proliferation (growth curves) (BxPc-3 cells): no effect
cell viability (MTT) (MCF-7 cells): no apparent change in cell viability
cell viability (MTT) (HCC1937 cells): no apparent change in cell viability
toxicity (MTT) (MCF-10A cells): low toxicity
